Data from patent publication US12060408B2, “Screening assays, modulators and modulation of activation of Receptor for Advanced Glycation End-products (RAGE)” (Monash University, priority 2017, dated 2024).

Legend:
IQGAP-1 = target: T1, IQGAP-1 (Cricetulus griseus, UniProt A0A8C2MPD4); assay: Pull-down on column coated with S391A-RAGE362-404, proteomic analysis; assay type: binding; conditions: lysate of CHO cells stably transfected with Hs-AT1R; NiNTA column; FIG. 11C
T1 construct: 5×10^7 CHO cells stably transfected with Hs-AT1R were lysed using RIPA buffer; endogenous in cells; host or cells: lysate of CHO cells stably transfected with Hs-AT1R
Method: The TAT-Cherry-S391A-RAGE362-404 peptide and TAT-mCherry control peptide were bound to a gravity flow NiNTA column, and equilibrated using lysis buffer (50 mM Tris pH 7.5, 300 mM NaCl, 5 mM βB-mercaptoethanol, 10 mM imidazole. 5×10^7 CHO cells stably transfected with Hs-AT1R were lysed using RIPA buffer (1×PBS supplemented with 1% NP-40, 0.5% Na-deoxycholate with protease and phosphatase inhibitors), diluted to 50 ml in lysis buffer and passed over the Ni-NTA column twice by gravity flow. The 1 ml column was washed extensively (200 ml wash buffer-50 mM Tris pH 7.4, 300 mM NaCl, 5 mM β-mercaptoethanol, 20 mM imidazole). After washing, 2 ml of elution buffer (50 mM Tris pH 7.4, 300 mM NaCl, 5 mM β-mercaptoethanol, 250 mM imidazole) was applied to the column, and used to elute proteins that had bound to either the A peptide or TAT-mCherry control peptide. 1 ml of sample was delivered for proteomic analysis by Mass Spectroscopy. Venny 2.1.0 was used to generate lists of the proteins differentially bound to the two proteins.

PMAEC = assay: Generation of superoxide and additional markers of oxidative stress (DCFH, Rac-1 G-LISA, oxidized glutathione) in PMAEC; assay type: cell-based, mouse
Method: Generation of Superoxide and Additional Markers of Oxidative Stress
To quantitate superoxide production induced by Ang II, a vessel chamber assay was used to measure total cytoplasmic and mitochondrial superoxide production in real time in PMAEC from AGER KO and C57Bl6 aortae. PMAEC were grown on collagen coated cover slips and mounted into a sealed glass chamber when they were 80% confluent. The chambers were perfused with Krebs buffer for an hour with fluorescent readings taken every 10 minutes to establish baseline readings. The cells were then perfused with 1 μM Ang II for 60 minutes and fluorescent readings were taken every 1 minute for a further 10 minutes. Fluorescence readings were expressed as change (Δ) in fluorescence arbitrary units from baseline. Levels of the activated NADPH oxidase subunit, Rac-1 activation was also measured in cell lysates after exposure to Ang II using a Rac-1 G-LISA activation assay (Cytoskeleton), as per manufacturers' instructions. Additional markers of oxidative stress were also assayed including levels of oxidized glutathione, (Cayman Chemical Company, US), performed as per manufacturer's instructions.

aortic endothelium = assay: Adherence of labelled leukocytes to aortae (dynamic flow assay); set-up: species or system mouse; conditions: ex vivo
Method: Adherence of Labelled Leukocytes to Aortae
After 1 week of a low sodium or normal sodium diet, apoE KO and AGER/apoE DKO animals were humanely killed and aortae were isolated, cleaned of fat and mounted in a vessel chamber primed with Krebs buffer and maintained at physiological pH by infusing carbogen gas (95% O2; 5% CO2) through the buffer at 37° C., as previously described. Whole blood labelled with DilC18 (1:1000) was then perfused through the aorta at 0.12 ml/min. As a positive control, vessels (n=6/group) were pre-treated with TNFα (4 ng/ml) for 4 hrs at 37° C. or Ang II (1 μM). Images and videos of vessel wall-cell interactions were acquired using a fluorescence microscope (Zeiss Discovery.V20), coupled to a digital camera ([…] ORCA-ER) and analysed with AxioVison software. Two to three frames were taken at each time point and the number of adherent cells per frame recorded.
Ex Vivo Studies in Isolated Aortae
Aortae were isolated from apoE KO and AGER/apoE DKO mice, divided and placed in Krebs buffer and maintained at physiological pH by infusing carbogen gas (95% O2; 5% CO2) through the buffer at 37° C. Vessels (n=6/group) were then treated with Ang II (1 μM) for 4 hours. […] Images and videos of vessel wall-cell interactions were observed using a fluorescence microscope (Zeiss Discovery.V20), coupled to a digital camera ([…] ORCA-ER) and analysed with AxioVison software.

[1] = Systolic BP measurement by tail-cuff plethysmography; assay type: in vivo, mouse; conditions: four-week infusion 1 μg/kg/min, both apoE KO and AGER/apoE DKO mice
Method: Systolic blood pressure was measured by tail-cuff plethysmography in conscious, pre-warmed mice using a computerized, non-invasive, tail-cuff system (Kent Scientific, USA). Animals were habituated to the device before measuring the pressures to ensure accurate measurements.

T1 sequence (A0A8C2MPD4 1-1657): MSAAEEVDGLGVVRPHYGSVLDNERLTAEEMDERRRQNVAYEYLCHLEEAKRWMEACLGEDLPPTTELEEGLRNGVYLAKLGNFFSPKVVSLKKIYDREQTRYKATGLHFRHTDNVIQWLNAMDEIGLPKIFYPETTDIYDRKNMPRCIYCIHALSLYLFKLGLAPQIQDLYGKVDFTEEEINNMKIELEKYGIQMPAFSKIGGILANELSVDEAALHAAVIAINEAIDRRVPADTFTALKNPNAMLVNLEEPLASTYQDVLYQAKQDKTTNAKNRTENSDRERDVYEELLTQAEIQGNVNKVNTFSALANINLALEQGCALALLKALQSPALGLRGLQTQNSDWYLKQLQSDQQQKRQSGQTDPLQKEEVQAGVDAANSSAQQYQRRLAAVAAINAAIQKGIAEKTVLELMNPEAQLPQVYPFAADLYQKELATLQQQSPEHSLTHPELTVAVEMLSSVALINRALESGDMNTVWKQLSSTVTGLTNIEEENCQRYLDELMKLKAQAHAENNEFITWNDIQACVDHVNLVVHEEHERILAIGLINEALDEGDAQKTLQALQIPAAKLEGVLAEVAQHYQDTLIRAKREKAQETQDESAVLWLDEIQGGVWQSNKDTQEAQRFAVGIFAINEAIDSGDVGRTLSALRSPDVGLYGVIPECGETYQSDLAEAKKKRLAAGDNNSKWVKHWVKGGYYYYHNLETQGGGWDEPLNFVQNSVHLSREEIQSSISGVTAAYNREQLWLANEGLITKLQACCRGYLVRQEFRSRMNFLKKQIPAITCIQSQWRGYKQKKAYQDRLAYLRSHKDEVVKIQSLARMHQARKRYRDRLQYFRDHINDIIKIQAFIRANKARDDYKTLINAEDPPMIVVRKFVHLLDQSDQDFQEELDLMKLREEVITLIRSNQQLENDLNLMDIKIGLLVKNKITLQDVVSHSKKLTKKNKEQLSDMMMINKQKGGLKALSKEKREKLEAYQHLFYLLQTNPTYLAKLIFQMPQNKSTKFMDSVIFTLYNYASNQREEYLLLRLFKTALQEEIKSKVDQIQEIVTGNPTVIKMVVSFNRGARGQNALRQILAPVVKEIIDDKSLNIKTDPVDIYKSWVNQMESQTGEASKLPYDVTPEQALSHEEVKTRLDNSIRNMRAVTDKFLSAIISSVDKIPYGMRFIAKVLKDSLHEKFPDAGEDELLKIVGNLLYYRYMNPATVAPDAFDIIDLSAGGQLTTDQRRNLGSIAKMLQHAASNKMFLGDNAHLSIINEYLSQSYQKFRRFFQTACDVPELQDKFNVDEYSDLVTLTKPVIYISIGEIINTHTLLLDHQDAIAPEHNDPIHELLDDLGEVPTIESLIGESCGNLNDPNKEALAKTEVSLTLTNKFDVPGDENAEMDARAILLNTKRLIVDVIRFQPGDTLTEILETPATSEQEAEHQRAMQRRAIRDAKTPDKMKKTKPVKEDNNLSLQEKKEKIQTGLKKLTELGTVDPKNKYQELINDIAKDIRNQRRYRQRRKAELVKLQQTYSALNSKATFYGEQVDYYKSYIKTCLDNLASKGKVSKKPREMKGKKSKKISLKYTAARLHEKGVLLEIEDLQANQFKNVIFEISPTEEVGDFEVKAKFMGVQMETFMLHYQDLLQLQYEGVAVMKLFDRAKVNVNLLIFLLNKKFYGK

Substance	association with IQGAP-1 (pull-down) (IQGAP-1)	ROS production and oxidative stress (PMAEC; PMAEC from AGER KO mice)	production of ROS and other markers of oxidative stress (activated rac-1, oxidised glutathione) (PMAEC; PMAEC from C57bl6 mice, 1 μM)	endothelial adhesiveness of primed leucocytes (aortic endothelium; aortae from AGER/apoE DKO mice, 1 μM)	number of adherent leukocytes (aortic endothelium; aortae from apoE KO mice, 1 μM vs untreated)	systolic blood pressure [1]
L362WQRRQRRGEERKAPENQEEEEERAELNQAEEPEAGESSTGGP404 (LWQRRQRRGEERKAPENQEEEEERAELNQAEEPEAGESSTGGP; listed as Homo sapiens) [S391A-RAGE362-404, S391A mutant RAGE cytosolic tail; non-functional substitute for RAGE]	preferentially associates with IQGAP-1					
angiotensin II (DRVYIHPF) [Ang II, cognate ligand of AT1R]		does not lead to	rapid increase	prevents	increased number of adherent leukocytes	increased to a similar extent
